These results are taken from patent publication US8778963B2, “Hydroxylamine and oxime substituted imidazoquinolines, imidazopyridines, and imidazonaphthyridines” (3M Innovative Properties Company, priority 2003, dated 2014).

One may read the melting point as the temperature of the solid-liquid transition.

Where a name gives a salt, the structure may show the parent alone.

`CCOCc1nc2c(N)nc3ccccc3c2n1CCCC(C)=NOC` (as salt: hydrochloride) [Example 35, 5-(4-Amino-2-ethoxymethyl-1H-imidazo[4,5-c]quinolin-1-yl)pentan-2-one O-methyloxime hydrochloride] registered a melting point of 189 to 192 °C.

`CCOCc1nc2c(N)nc3ccccc3c2n1CCCC(C)=NOCc1ccccc1` (as salt: hydrochloride) [Example 36, 5-(4-Amino-2-ethoxymethyl-1H-imidazo[4,5-c]quinolin-1-yl)pentan-2-one O-benzyloxime hydrochloride] yielded a melting point of 184 to 186 °C.

With `CCCc1nc2c(N)nc3cccnc3c2n1CCCCN(OC)C(C)=O` [Example 1, N-[4-(4-Amino-2-propyl-1H-imidazo[4,5-c]-1,5-naphthyridin-1-yl)butyl]-N-methoxyacetamide], the melting point was in the range of 155 to 156 °C.

Turning to `CCCc1nc2c(N)nc3cccnc3c2n1CCCCN(OC)C(=O)c1ccccc1` [Example 2, N-[4-(4-Amino-2-propyl-1H-imidazo[4,5-c][1,5]naphthyridin-1-yl)butyl]-N-methoxybenzamide], the melting point lay within 125 to 127 °C.

As to `CCCc1nc2c(N)nc3cccnc3c2n1CCCCN(OC)C(=O)NC(C)C` [Example 3, N-[4-(4-Amino-2-propyl-1H-imidazo[4,5-c][1,5]naphthyridin-1-yl)butyl]-N′-isopropyl-N-methoxyurea], the melting point fell in the range of 161 to 162 °C.

The compound `CCCCc1nc2c(N)nc3cccnc3c2n1CCC/C(C)=N/OC` [Example 4, 5-(4-Amino-2-butyl-1H-imidazo[4,5-c][1,5]naphthyridin-1-yl)-pentan-2-one O-methyloxine] came in with a melting point of 132 to 134 °C.

Regarding `CCCc1nc2c(N)nc(C)c(C)c2n1CCC/C(C)=N/OC` [Example 5, 5-(4-Amino-6,7-dimethyl-2-propyl-1H-imidazo[4,5-c]pyridine-1-yl)pentan-2-one O-methyloxime], the melting point lay in the range of 144 to 145.5 °C.

For the compound `CCCc1nc2c(N)nc3ccccc3c2n1CCCCN(OC)C(C)=O` [Example 6, N-[4-(4-Amino-2-propyl-1H-imidazo[4,5-c]quinolin-1-yl)butyl]-N-methoxyacetamide], the melting point is 138 to 140 °C.

As for `CCCc1nc2c(N)nc3ccccc3c2n1CCCCN(OC)C(N)=O` [Example 7, 1-[4-(4-Amino-2-propyl-1H-imidazo[4,5-c]quinolin-1-yl)butyl]-1-methoxyurea], the melting point was in the range of 179 to 181 °C.

Consider `CCCc1nc2c(N)nc3ccccc3c2n1CCCCN(OC)S(C)(=O)=O` [Example 8, N-[4-(4-Amino-2-propyl-1H-imidazo[4,5-c]quinolin-1-yl)butyl]-N-methoxymethanesulfonamide], for which the melting point is 178 to 188 °C.

In turn, `CCCc1nc2c(N)nc3ccccc3c2n1CCCCN(OC)C(=O)Nc1ccccc1` [Example 9] yielded a melting point of 164 to 166 °C.

`CCCc1nc2c(N)nc3ccccc3c2n1CCCC(C)N(OC)C(C)=O` (centres unmarked) [Example 10, N-[4-(4-Amino-2-propyl-1H-imidazo[4,5-c]quinolin-1-yl)-1-methylbutyl]-N-methoxy-acetamide]: the melting point lay within 140 to 142 °C.

For `CCCc1nc2c(N)nc3ccccc3c2n1CCCC(C)N(OC)C(=O)Nc1ccccc1` (centres unmarked) [Example 11, 1-[4-(4-Amino-2-propyl-1H-imidazo[4,5-c]quinolin-1-yl)-1-methylbutyl]-1-methoxy-3-phenylurea], the melting point was in the range of 140 to 142 °C.

The compound `CCCc1nc2c(N)nc3ccccc3c2n1CCCC(C)N(OC)C(=O)NCC` (centres unmarked) [Example 12, 1-[4-(4-Amino-2-propyl-1H-imidazo[4,5-c]quinolin-1-yl)-1-methylbutyl]-3-ethyl-1-methoxyurea] came in with a melting point of 193 to 194 °C.

`CCOCc1nc2c(N)nc3ccccc3c2n1CCCC(C)N(OC)S(C)(=O)=O` (centres unmarked) [Example 13, N-[4-(4-Amino-2-ethoxymethyl-1H-imidazo[4,5-c]quinolin-1-yl)-1-methylbutyl]-N-methoxymethanesulfonamide] displayed a melting point of 146 to 148 °C.

In turn, `CCCc1nc2c(N)nc(C)c(C)c2n1CCCCN(O)C(=O)OC(C)(C)C` [Example 14, N-[4-(4-Amino-6,7-dimethyl-2-propyl-1H-imidazo[4,5-c]pyridin-1-yl)butyl]-N-[tert-butyl carbamate]hydroxylamine] gave a melting point of 157 to 158.5 °C.

The compound `CCCc1nc2c(N)nc(C)c(C)c2n1CCCCN(O)C(C)=O` [Example 15, N-[4-(4-Amino-6,7-dimethyl-2-propyl-1-imidazo[4,5-c]pyridin-1-yl)butyl]-N-hydroxyacetamide] registered a melting point of 164 to 166 °C.

Take `CCCc1nc2c(N)nc3ccccc3c2n1CCCC(C)N(OC)C(=O)NC1CCCC1` (centres unmarked) [Example 16, 1-[4-(4-Amino-2-propyl-1H-imidazo[4,5-c]quinolin-1-yl)-1-methylbutyl]-N-methoxy-3-cyclopentylurea]: the melting point was 182 to 184 °C.

In turn, `CCCc1nc2c(N)nc3cc(-c4ccccc4)ccc3c2n1CCCC(C)=NOC` [Example 17, 5-(4-Amino-7-phenyl-2-propyl-1H-imidazo[4,5-c]quinolin-1-yl)pentan-2-one O-methyloxime] had a melting point of 191 to 192 °C.

Compound `CCCc1nc2c(N)nc3cc(-c4ccccc4)ccc3c2n1CCCC(C)N(OC)C(=O)NC(C)C` (centres unmarked) [Example 18, 1-[4-(4-Amino-7-phenyl-2-propyl-1H-imidazo[4,5-c]quinolin-1-yl)-1-methylbutyl]-3-isopropyl-1-methoxyurea] displayed a melting point of 101 to 103 °C.

`CCCc1nc2c(N)nc3cccnc3c2n1CCCCN(OC)C(=O)Nc1ccccc1` [Example 19, N-[4-(4-Amino-2-propyl-1H-imidazo[4,5-c][1,5]naphthyridin-1-yl)butyl]-N-methoxy-N′-phenylurea] displayed a melting point of 155 to 156 °C.

For the compound `CCOCc1nc2c(N)nc3cccnc3c2n1CCCCN(OC)C(C)=O` [Example 20, N-[4-(4-amino-2-ethoxymethyl-1H-imidazo[4,5-c][1,5]naphthyridin-1-yl)butyl]-N-Methoxyacetamide], the melting point was in the range of 180 to 181 °C.

Compound `CCOCc1nc2c(N)nc3cccnc3c2n1CCCCN(OC)C(=O)NC(C)C` [Example 21, 1-[4-(4-Amino-2-ethoxymethyl-1H-imidazo[4,5-c][1,5]naphthyridin-1-yl)butyl]-3-isopropyl-1-methoxyurea] displayed a melting point of 146 to 147 °C.

For `CCCc1nc2c(N)nc3cccnc3c2n1CCCC(C)N(OC)C(C)=O` (centres unmarked) [Example 22, N-Methoxy-N-[4-(4-amino-2-propyl-1H-imidazo[4,5-c][1,5]naphthyridin-1-yl)1-methyl-butyl]acetamide], the melting point fell in the range of 158 to 159 °C.

In turn, `CCCc1nc2c(N)nc(C)c(C)c2n1CCCCN(O)C(=O)NC(C)C` [Example 23, 1-[4-(4-Amino-6,7-dimethyl-2-propyl-1H-imidazo[4,5-c]pyridin-1-yl)butyl]-1-hydroxy-3-isopropylurea] showed a melting point of 138.5 to 140 °C.

Turning to `CCCc1nc2c(N)nc(C)c(C)c2n1CCCCN(O)C(=O)Nc1ccccc1` [Example 24, 1-[4-(4-Amino-6,7-dimethyl-2-propyl-1H-imidazo[4,5-c]pyridine-1-yl)butyl]-1-hydroxy-3-phenylurea], the melting point was in the range of 159 to 160.5 °C.
